Drawing on US8471005B2 (Cephalon, Inc., priority 2008, dated 2013), this text covers IC50 for 22 molecules.

One assay has as its target T1, ALK (Homo sapiens, UniProt Q9UM73).
T1 construct: host or cells: baculovirus expression system
The assay can be described thus: ALK Kinase Assay (ELISA/TRF, PLC-γ substrate). Format: biochemical. To be noted: read-out: ALK Potency. The essentials: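 IC50 values derive from percent inhibition plotted against log10 compound concentration and fitted to a variable-slope sigmoidal equation. The underlying reaction used 30 ng/ml ALK acting on immobilized PLC-γ (10 μg/mL in TBS) at 37° C for 15 minutes, read with Eu-N1 PT66 antibody.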

The target in another assay is T2, JAK2 (Homo sapiens, UniProt O60674).
T2 construct: host or cells: baculovirus expression system
The assay can be described thus: Recombinant Human JAK2 Kinase Assay (TRF). To be noted: read-out: JAK2 Potency. It counts as biochemical. A digest of the protocol:
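TRF read-out: Eu-N1 PY100 anti-phosphotyrosine antibody detects product. Enzyme is baculovirus-expressed JAK2 at 15 ng/ml; substrate is a biotinyl 15-mer peptide bound to Neutravidin-coated wells. Buffer 20 mM HEPES pH 7.2, 0.2 μM ATP, 1 mM MnCl2, 0.1% BSA, 2.5% DMSO final; 20 min, RT.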

[1] abbreviates: ALK kinase inhibition, 1 μM ATP.
Setting [2] is: JAK2 kinase inhibition, 0.2 μM ATP.

Read-outs that look alike come from different tables or passages of the source.

T2 sequence (O60674 whole entry): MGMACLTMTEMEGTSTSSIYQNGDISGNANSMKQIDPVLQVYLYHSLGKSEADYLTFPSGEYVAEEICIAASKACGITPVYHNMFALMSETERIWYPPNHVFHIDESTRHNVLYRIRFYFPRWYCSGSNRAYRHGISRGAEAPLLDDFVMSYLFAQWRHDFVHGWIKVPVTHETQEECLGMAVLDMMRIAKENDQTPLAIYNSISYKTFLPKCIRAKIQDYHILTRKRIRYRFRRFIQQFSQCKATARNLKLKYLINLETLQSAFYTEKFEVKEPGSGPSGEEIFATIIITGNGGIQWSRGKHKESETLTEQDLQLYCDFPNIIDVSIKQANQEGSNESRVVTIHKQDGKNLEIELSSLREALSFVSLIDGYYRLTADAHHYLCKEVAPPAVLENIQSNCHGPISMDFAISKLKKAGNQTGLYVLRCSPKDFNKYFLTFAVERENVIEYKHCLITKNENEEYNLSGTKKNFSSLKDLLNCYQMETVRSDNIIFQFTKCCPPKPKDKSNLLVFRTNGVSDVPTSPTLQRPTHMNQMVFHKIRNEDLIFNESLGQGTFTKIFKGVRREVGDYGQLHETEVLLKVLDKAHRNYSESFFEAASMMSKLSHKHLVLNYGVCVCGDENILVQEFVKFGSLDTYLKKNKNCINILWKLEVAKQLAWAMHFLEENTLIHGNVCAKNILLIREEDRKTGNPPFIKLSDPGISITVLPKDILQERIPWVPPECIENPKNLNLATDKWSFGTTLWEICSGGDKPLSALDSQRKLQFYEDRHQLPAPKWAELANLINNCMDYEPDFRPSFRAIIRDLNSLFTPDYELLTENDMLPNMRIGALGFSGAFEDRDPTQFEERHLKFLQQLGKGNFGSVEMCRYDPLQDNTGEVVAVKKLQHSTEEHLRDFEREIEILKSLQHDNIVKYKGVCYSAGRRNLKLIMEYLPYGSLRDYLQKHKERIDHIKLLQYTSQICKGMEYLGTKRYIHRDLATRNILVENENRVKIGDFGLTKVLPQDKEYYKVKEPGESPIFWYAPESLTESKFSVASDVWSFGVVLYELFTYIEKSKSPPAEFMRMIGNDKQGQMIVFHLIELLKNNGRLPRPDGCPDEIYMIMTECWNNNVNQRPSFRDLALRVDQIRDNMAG
T1 sequence (Q9UM73 19-1620): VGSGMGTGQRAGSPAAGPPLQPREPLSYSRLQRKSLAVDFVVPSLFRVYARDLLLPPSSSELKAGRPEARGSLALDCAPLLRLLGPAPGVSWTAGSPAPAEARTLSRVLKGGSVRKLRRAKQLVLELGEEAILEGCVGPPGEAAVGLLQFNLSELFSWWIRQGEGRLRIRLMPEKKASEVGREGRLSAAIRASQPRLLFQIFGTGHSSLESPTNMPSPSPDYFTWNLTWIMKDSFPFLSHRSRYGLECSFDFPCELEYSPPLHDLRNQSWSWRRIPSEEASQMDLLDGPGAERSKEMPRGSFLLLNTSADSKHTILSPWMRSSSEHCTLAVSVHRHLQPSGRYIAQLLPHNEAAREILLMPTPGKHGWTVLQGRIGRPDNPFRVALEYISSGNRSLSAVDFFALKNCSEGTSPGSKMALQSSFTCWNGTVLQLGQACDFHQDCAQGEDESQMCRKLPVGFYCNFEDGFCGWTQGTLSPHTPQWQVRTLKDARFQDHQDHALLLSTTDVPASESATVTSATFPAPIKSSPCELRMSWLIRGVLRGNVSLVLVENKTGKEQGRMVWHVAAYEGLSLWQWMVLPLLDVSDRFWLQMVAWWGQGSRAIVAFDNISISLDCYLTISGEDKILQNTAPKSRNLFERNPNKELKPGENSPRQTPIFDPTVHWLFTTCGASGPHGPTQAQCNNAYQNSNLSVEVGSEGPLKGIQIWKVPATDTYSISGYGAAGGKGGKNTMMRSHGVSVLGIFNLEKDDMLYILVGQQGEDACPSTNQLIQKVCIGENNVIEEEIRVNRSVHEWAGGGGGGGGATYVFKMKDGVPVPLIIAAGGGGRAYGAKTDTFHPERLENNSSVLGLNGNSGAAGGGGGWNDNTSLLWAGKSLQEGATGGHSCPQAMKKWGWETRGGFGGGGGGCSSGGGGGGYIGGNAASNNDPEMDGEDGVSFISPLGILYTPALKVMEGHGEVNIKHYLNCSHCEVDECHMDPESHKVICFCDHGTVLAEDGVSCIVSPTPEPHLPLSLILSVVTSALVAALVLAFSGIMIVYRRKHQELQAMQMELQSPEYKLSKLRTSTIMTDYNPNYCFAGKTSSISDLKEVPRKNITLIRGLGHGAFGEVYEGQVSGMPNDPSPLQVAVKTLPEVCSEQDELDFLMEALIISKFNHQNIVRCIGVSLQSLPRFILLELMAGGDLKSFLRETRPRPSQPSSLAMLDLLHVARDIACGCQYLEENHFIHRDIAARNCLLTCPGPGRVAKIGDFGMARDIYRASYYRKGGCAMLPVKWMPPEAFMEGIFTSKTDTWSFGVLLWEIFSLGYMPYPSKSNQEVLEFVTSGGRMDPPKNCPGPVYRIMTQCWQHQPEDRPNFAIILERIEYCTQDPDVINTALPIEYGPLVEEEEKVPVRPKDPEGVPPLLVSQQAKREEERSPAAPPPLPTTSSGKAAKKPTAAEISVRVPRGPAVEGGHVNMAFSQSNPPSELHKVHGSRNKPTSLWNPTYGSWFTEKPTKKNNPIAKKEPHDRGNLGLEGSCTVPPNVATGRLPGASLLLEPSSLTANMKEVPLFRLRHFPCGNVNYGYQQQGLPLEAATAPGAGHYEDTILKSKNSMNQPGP

As to `COc1ccccc1-c1ccc2cnc(Nc3cccc(S(=O)(=O)N(C)C)c3)nn12` [Example 594, 3-[7-(2-Methoxy-phenyl)-pyrrolo[2,1-f][1,2,4]triazin-2-ylamino]-N,N-dimethyl-benzenesulfonamide], the results for the IC50 at ALK (setting [1]) and on JAK2 (setting [2]) were 1000 to 10000 nM and less than 100 nM, respectively.

With `COc1ccccc1-c1ccc2cnc(Nc3ccc4cnn(CCN5CCOCC5)c4c3)nn12` [Example 1347, [7-(2-Methoxy-phenyl)-pyrrolo[2,1-f][1,2,4]triazin-2-yl]-[1-(2-morpholin-4-yl-ethyl)-1H-indazol-6-yl]-amine], the IC50 was 1000 to 10000 nM on ALK (setting [1]) and less than 100 nM on JAK2 (setting [2]).

Consider `COc1cc(C2=CCN(CC(N)=O)CC2)ccc1Nc1ncc2ccc(-c3ccccc3OC)n2n1` [Example 1274, 2-(4-{3-Methoxy-4-[7-(2-methoxy-phenyl)-pyrrolo[2,1-f][1,2,4]triazin-2-ylamino]-phenyl}-3,6-dihydro-2H-pyridin-1-yl)-acetamide], for which the figures for the IC50 on ALK (setting [1]) and at JAK2 (setting [2]) were less than 100 nM and 100 to 1000 nM, respectively.

Take `COc1ccc(CNc2ncc3ccc(-c4ccccc4OC)n3n2)cc1OC` [Example 442, (3,4-Dimethoxy-benzyl)-[7-(2-methoxy-phenyl)-pyrrolo[2,1-f][1,2,4]triazin-2-yl]-amine]: the IC50 at ALK (ALK Kinase Inhibition) is more than 10000 nM; at JAK2 (JAK2 Kinase Inhibition), 1000 to 10000 nM.

As to `CC(C)(C)C(=O)Nc1ccccc1-c1ccc2cnc(Nc3ccc(N4CCOCC4)cc3)nn12` [Example 401, 2,2-Dimethyl-N-{2-[2-(4-morpholin-4-yl-phenylamino)-pyrrolo[2,1-f][1,2,4]triazin-7-yl]-phenyl}-propionamide], the IC50 was more than 10000 nM at ALK (ALK Kinase Inhibition) and less than 100 nM at JAK2 (JAK2 Kinase Inhibition).

On to `COc1cc2c(cc1Nc1ncc3ccc(-c4ccccc4OC)n3n1)CN(C(=O)OC(C)(C)C)C2` [Example 874, 5-Methoxy-6-[7-(2-methoxy-phenyl)-pyrrolo[2,1-f][1,2,4]triazin-2-ylamino]-1,3-dihydro-isoindole-2-carboxylic acid tert-butyl ester], for which the IC50 at ALK (setting [1]) and on JAK2 (setting [2]) was 1000 to 10000 nM in each case.

On to `CN1CCN(c2ccc(Nc3ncc4ccc(-c5cccnc5F)n4n3)cc2)CC1` [Example 1041, [7-(2-Fluoro-pyridin-3-yl)-pyrrolo[2,1-f][1,2,4]triazin-2-yl]-[4-(4-methyl-piperazin-1-yl)-phenyl]-amine], for which the IC50 is 100 to 1000 nM on ALK (setting [1]) and less than 100 nM on JAK2 (setting [2]).

For `CN1CCN(c2ccc(Nc3ncc4ccc(Sc5ccncc5)n4n3)cc2)CC1` [Example 1117, [4-(4-Methyl-piperazin-1-yl)-phenyl]-[7-(pyridin-4-ylsulfanyl)-pyrrolo[2,1-f][1,2,4]triazin-2-yl]-amine], the IC50 on ALK (setting [1]) was 1000 to 10000 nM; at JAK2 (setting [2]), less than 100 nM.

As for `COc1cc(C2CCNCC2O)ccc1Nc1ncc2ccc(-c3cccc4c3OCC4)n2n1` (centres unmarked) [Example 718, 4-{4-[7-(2,3-Dihydro-benzofuran-7-yl)-pyrrolo[2,1-f][1,2,4]triazin-2-ylamino]-3-methoxy-phenyl}-piperidin-3-ol], the IC50 at ALK (setting [1]) and at JAK2 (setting [2]) was less than 100 nM throughout.

For `COc1ccccc1-c1ccc2cnc(Nc3cccc(C(N)=O)c3)nn12` [Example 164, 3-[7-(2-Methoxy-phenyl)-pyrrolo[2,1-f][1,2,4]triazin-2-ylamino]-benzamide], the IC50 on ALK (ALK Kinase Inhibition) is 100 to 1000 nM; at JAK2 (JAK2 Kinase Inhibition), less than 100 nM.

In the case of `Clc1cc(N2CCOCC2)ccc1Nc1ncc2c(Cl)cc(-c3ccccc3)n2n1` [Example 80, (2-Chloro-4-morpholin-4-yl-phenyl)-(5-chloro-7-phenyl-pyrrolo[2,1-f][1,2,4]triazin-2-yl)-amine], the IC50 at ALK (ALK Kinase Inhibition) was more than 10000 nM; on JAK2 (JAK2 Kinase Inhibition), less than 100 nM.

`c1cncc(-c2ccc3cnc(Nc4ccc(N5CCCC(N6CCOCC6)C5)cc4)nn23)c1` (centres unmarked) [Example 347, [4-(3-Morpholin-4-yl-piperidin-1-yl)-phenyl]-(7-pyridin-3-yl-pyrrolo[2,1-f][1,2,4]triazin-2-yl)-amine]: the IC50 at ALK (ALK Kinase Inhibition) is 100 to 1000 nM; at JAK2 (JAK2 Kinase Inhibition), less than 100 nM.

With `COc1ccc(-c2ccc3cnc(Nc4ccc5c(c4)CN(CC(N)=O)CC5)nn23)cn1` [Example 986, 2-{7-[7-(6-Methoxy-pyridin-3-yl)-pyrrolo[2,1-f][1,2,4]triazin-2-ylamino]-3,4-dihydro-1H-isoquinolin-2-yl}-acetamide], the IC50 at ALK (setting [1]) is 1000 to 10000 nM; on JAK2 (setting [2]) it was less than 100 nM.

For the molecule `c1ccc(-c2ccc3cnc(Nc4ccc(N5CCOCC5)nc4)nn23)cc1` [Example 46, (6-Morpholin-4-yl-pyridin-3-yl)-(7-phenyl-pyrrolo[2,1-f][1,2,4]triazin-2-yl)-amine], the IC50 was 1000 to 10000 nM on ALK (ALK Kinase Inhibition) and less than 100 nM on JAK2 (JAK2 Kinase Inhibition).

Consider `CN(c1ccccc1-c1ccc2cnc(Nc3ccc4c(c3)N(S(C)(=O)=O)CCC4)nn12)S(C)(=O)=O` [Example 1062, N-{2-[2-(1-Methanesulfonyl-1,2,3,4-tetrahydro-quinolin-7-ylamino)-pyrrolo[2,1-f][1,2,4]triazin-7-yl]-phenyl}-N-methyl-methanesulfonamide], for which the figures for the IC50 on ALK (setting [1]) and at JAK2 (setting [2]) were 100 to 1000 nM and less than 100 nM, respectively.

Turning to `COc1cc(N2CCC(N3CCCC3)CC2)ccc1Nc1ncc2ccc(-c3ccccc3OC)n2n1` [Example 481, [7-(2-Methoxy-phenyl)-pyrrolo[2,1-f][1,2,4]triazin-2-yl]-[2-methoxy-4-(4-pyrrolidin-1-yl-piperidin-1-yl)-phenyl]-amine], the IC50 is less than 100 nM on ALK (setting [1]) and 100 to 1000 nM at JAK2 (setting [2]).

Consider “[4-(4-Diethylamino-piperidin-1-yl)-phenyl]-[7-(4-methanesulfonyl-phenyl)-pyrrolo[2,1-f][1,2,4]triazin-2-yl]-amine [Example 1136]”, for which the IC50 was 100 to 1000 nM at ALK (setting [1]) and less than 100 nM at JAK2 (setting [2]).

Consider `Cn1ncc2cc(Nc3ncc4ccc(-c5cccc(S(=O)(=O)NC(C)(C)C)c5)n4n3)ccc21` [Example 1316, N-tert-Butyl-3-[2-(1-methyl-1H-indazol-5-ylamino)-pyrrolo[2,1-f][1,2,4]triazin-7-yl]-benzenesulfonamide], for which the IC50 at ALK (setting [1]) was 100 to 1000 nM; at JAK2 (setting [2]), less than 100 nM.

`CS(=O)(=O)c1cccc(-c2ccc3cnc(Nc4ccc5c(c4)CCC(N4CCOCC4)CC5)nn23)c1` (centres unmarked) [Example 611, [7-(3-Methanesulfonyl-phenyl)-pyrrolo[2,1-f][1,2,4]triazin-2-yl]-(7-morpholin-4-yl-6,7,8,9-tetrahydro-5H-benzocyclohepten-2-yl)-amine]: the figures for the IC50 at ALK (setting [1]) and at JAK2 (setting [2]) were 100 to 1000 nM and less than 100 nM, respectively.

Regarding `COc1cc(C2CCN(C)CC2)ccc1Nc1ncc2ccc(-c3cccc(S(=O)(=O)NC4CC4)c3)n2n1` [Example 696], the IC50 on ALK (setting [1]) was less than 100 nM; on JAK2 (setting [2]), 100 to 1000 nM.

With `CC(C)(C)NS(=O)(=O)c1cccc(-c2ccc3cnc(Nc4ccc5c(c4)ncn5CCN4CCOCC4)nn23)c1` [Example 1325, N-tert-Butyl-3-{2-[1-(2-morpholin-4-yl-ethyl)-1H-benzimidazol-5-ylamino]-pyrrolo[2,1-f][1,2,4]triazin-7-yl}-benzenesulfonamide], the IC50 on ALK (setting [1]) was 100 to 1000 nM; on JAK2 (setting [2]), less than 100 nM.

Take `CN1CCN(c2ccc(Nc3ncc4ccc(-c5ccccc5OCC(=O)O)n4n3)cc2)CC1` [Example 1182, (2-{2-[4-(4-Methyl-piperazin-1-yl)-phenylamino]-pyrrolo[2,1-f][1,2,4]triazin-7-yl}-phenoxy)-acetic acid]: the IC50 on ALK (setting [1]) was 100 to 1000 nM; on JAK2 (setting [2]), less than 100 nM.
